Assay results as given in PubChem BioAssay AID2060498 (Molecular Pharmacology Branch, DTP, NCI, 2025).
Where “and” joins values, the source holds several entries; their conditions need not be identical. Identical values can stand only once.

Tested on: 171881-019-R-J1-PDC tumor spheroids, viability
Test: Anticancer human tumor 171881-019-R-J1-PDC patient-derived invasive breast carcinoma cell line growth inhibition [GQUAD]
Settings: spheroids with HUVEC and MSC; for viability, T/C: stronger effect = lower value
How it was run: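 Multi-cell-type spheroids of tumor cells with HUVEC and mesenchymal stem cells, treated with drug combinations. Concentrations descend in half-log steps from near clinical Cmax, or from 10 microM where Cmax is unknown; viability read-out.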
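Note: spheroids exposed to compounds for 7 days.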
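Throughout, for viability, T/C: 100% = DMSO vehicle control viability.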

Compound `CC[C@@]1(O)C(=O)OCc2c1cc1n(c2=O)Cc2cc3c(CN(C)C)c(O)ccc3nc2-1` + CN(C)c1ccc(Nc2c3ccc(NC(=O)CCN4CCCC4)cc3nc3cc(NC(=O)CCN4CCCC4)ccc23)cc1 has an IC50 (curve of first compound, second compound 0.0316 µM) of 255 nM, an IC50 (curve of first compound, second compound 0.1 µM) of 251 nM and an IC50 (curve of first compound, second compound 0.316 µM) of 189 nM. The IC50 (curve of first compound, second compound 1 µM) was < 0.999 nM, the IC50 (curve of first compound, second compound 3.16 µM) was < 0.999 nM and the IC50 (curve of first compound, second compound 10 µM) was < 0.999 nM. The viability, T/C (second compound 0.0316 µM, first compound 0.000999 µM) was 110%, the viability, T/C (second compound 0.0316 µM, first compound 0.00316 µM) was 108% and the viability, T/C (second compound 0.0316 µM, first compound 0.00999 µM) was 105%. It also gave a viability, T/C (second compound 0.0316 µM, first compound 0.0316 µM) of 99.5%, a viability, T/C (second compound 0.0316 µM, first compound 0.0999 µM) of 57.8% and a viability, T/C (second compound 0.0316 µM, first compound 0.316 µM) of 48.3%. The viability, T/C (second compound 0.1 µM, first compound 0.000999 µM) was 110%, the viability, T/C (second compound 0.1 µM, first compound 0.00316 µM) was 112% and the viability, T/C (second compound 0.1 µM, first compound 0.00999 µM) was 93.9%. For the same compound, the viability, T/C (second compound 0.1 µM, first compound 0.0316 µM) was 115%, the viability, T/C (second compound 0.1 µM, first compound 0.0999 µM) was 61.9% and the viability, T/C (second compound 0.1 µM, first compound 0.316 µM) was 47%. It also gave a viability, T/C (second compound 0.316 µM, first compound 0.000999 µM) of 85%, a viability, T/C (second compound 0.316 µM, first compound 0.00316 µM) of 85.3% and a viability, T/C (second compound 0.316 µM, first compound 0.00999 µM) of 63.3%. For the same compound, the viability, T/C (second compound 0.316 µM, first compound 0.0316 µM) was 70.7%, the viability, T/C (second compound 0.316 µM, first compound 0.0999 µM) was 60.6% and the viability, T/C (second compound 0.316 µM, first compound 0.316 µM) was 42.4%. It also gave a viability, T/C (second compound 1 µM, first compound 0.000999 µM) of 23.9%, a viability, T/C (second compound 1 µM, first compound 0.00316 µM) of 14.9% and a viability, T/C (second compound 1 µM, first compound 0.00999 µM) of 17.4%. For the same compound, the viability, T/C (second compound 1 µM, first compound 0.0316 µM) was 11.6%, the viability, T/C (second compound 1 µM, first compound 0.0999 µM) was 10.3% and the viability, T/C (second compound 1 µM, first compound 0.316 µM) was 14.4%. The viability, T/C (second compound 3.16 µM, first compound 0.000999 µM) was 2.23%, the viability, T/C (second compound 3.16 µM, first compound 0.00316 µM) was 1.91% and the viability, T/C (second compound 3.16 µM, first compound 0.00999 µM) was 2.49%. For the same compound, the viability, T/C (second compound 3.16 µM, first compound 0.0316 µM) was 1.45%, the viability, T/C (second compound 3.16 µM, first compound 0.0999 µM) was 2.03% and the viability, T/C (second compound 3.16 µM, first compound 0.316 µM) was 1.84%. It also gave a viability, T/C (second compound 10 µM, first compound 0.000999 µM) of 0.21%, a viability, T/C (second compound 10 µM, first compound 0.00316 µM) of 1.05% and a viability, T/C (second compound 10 µM, first compound 0.00999 µM) of 0.53%. For the same compound, the viability, T/C (second compound 10 µM, first compound 0.0316 µM) was 0.24%, the viability, T/C (second compound 10 µM, first compound 0.0999 µM) was 0.6% and the viability, T/C (second compound 10 µM, first compound 0.316 µM) was 0.58%.
`Cc1[nH]c2ccc(F)cc2c1-c1nc2c3cccnc3c3ncccc3c2[nH]1` was tested, and the viability, T/C (compound 0.0316 µM) was 101% [middle of 12 runs], the viability, T/C (compound 0.1 µM) was 103% [middle of 12 runs] and the viability, T/C (compound 10 µM) was 54.6% [middle of 12 runs]. For the same compound, the IC50 (compound alone, run of 02/20/2024) was 2.63 µM [middle of 8 runs] and the IC50 (compound alone, run of 02/26/2024) was 1.65 µM [middle of 4 runs].
For `CC(C)(O)C1CCC(Nc2ccc3ncc(-c4cccc(C(F)(F)F)c4)n3n2)CC1` (centres undefined), the viability, T/C (compound 0.0316 µM) was 94.5% and 97.7% and 83.7%, the viability, T/C (compound 0.1 µM) was 103% and 88.9% and 87.9% and the viability, T/C (compound 0.316 µM) was 90% and 92.4% and 78.3%. The viability, T/C (compound 1 µM) was 74.2% and 75.5% and 74.3%, the viability, T/C (compound 3.16 µM) was 25.5% and 27.5% and 22.3% and the viability, T/C (compound 10 µM) was 33.8% and 31.2% and 26.3%. The IC50 (curve of compound) was 1870 nM and 1890 nM and 1750 nM.
